Measurements reported in patent publication US20230416330A1, “Optimized GIP Peptide Analogues” (Antag Therapeutics ApS, priority 2019, published 2023).
Starred links: 1 amine or outer side, 2 acyl side, 3 side chain; linkers in the order of their positions; H or OH if unused. Non-standard residues stand in square brackets, D forms with d. Residues, ends and D or L forms follow the SMILES beside them. Groups on a side chain read outwards from the residue. No end group written: not given here. *: point of attachment. C16 diacid = O=C(O)CCCCCCCCCCCCCCC(=O)*; γGlu = O=C(O)[C@H](CCC(=O)[*:2])N[*:1]; Aib = CC(C)(N)C(=O)O

Columns and labels:
[1] = Physical stability: fibril formation in Thioflavin T (ThT) assay with agitation; format: physicochemical
Summary of the method: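 Read-out is continuous ThT fluorescence at 486 nm, with lag time taken where signal reaches 10% between pre- and post-transition baselines. Filtered samples (1, 5, 7.5 or 15 mg/ml; pH 7.4 phosphate buffer or NaOH-adjusted water) were stressed at 25° C. by orbital rotation at 300 rpm with one silica bead per well.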

[2] = Solubility by visual inspection of peptide solutions; format: physicochemical
Summary of the method: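 Solubility scored by eye: clear, colorless appearance after gentle mixing. Samples prepared at 1, 5, 7.5 or 15 mg/ml in either pH 7.4 water (NaOH-adjusted) or 50 mM sodium phosphate buffer, pH 7.4.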

human GIP receptor = molecular target: T1, human GIP receptor (human, UniProt P48546 22-466); assay: cell-based or functional assay
T1 sequence (looked up): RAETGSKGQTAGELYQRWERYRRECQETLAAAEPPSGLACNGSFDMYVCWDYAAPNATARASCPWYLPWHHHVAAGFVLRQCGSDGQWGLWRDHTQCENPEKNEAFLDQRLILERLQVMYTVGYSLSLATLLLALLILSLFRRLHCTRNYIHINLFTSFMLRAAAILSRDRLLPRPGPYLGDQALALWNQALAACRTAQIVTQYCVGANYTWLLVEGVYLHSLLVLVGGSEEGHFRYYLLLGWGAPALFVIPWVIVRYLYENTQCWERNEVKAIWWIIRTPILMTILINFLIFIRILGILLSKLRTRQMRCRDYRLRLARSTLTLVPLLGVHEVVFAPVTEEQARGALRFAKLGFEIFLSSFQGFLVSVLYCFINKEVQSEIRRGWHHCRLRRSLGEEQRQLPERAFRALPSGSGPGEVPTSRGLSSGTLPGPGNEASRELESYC

[3] = 1 mg/ml, TFA, Phosphate (7.4), 25° C., agitation

CC[C@H](C)[C@H](NC(=O)[C@H](CO)NC(=O)[C@H](Cc1ccc(O)cc1)NC(=O)[C@H](CC(=O)O)NC(=O)[C@H](CO)NC(=O)[C@@H](NC(=O)[C@H](Cc1ccccc1)NC(=O)[C@@H](NC(=O)CNC(=O)[C@@H](N)CCC(=O)O)[C@@H](C)O)[C@@H](C)CC)C(=O)N[C@@H](C)C(=O)N[C@@H](CCSC)C(=O)N[C@@H](CC(=O)O)C(=O)N[C@@H](CCCCN)C(=O)N[C@H](C(=O)N[C@@H](Cc1c[nH]cn1)C(=O)N[C@@H](CCC(N)=O)C(=O)N[C@@H](CCC(N)=O)C(=O)N[C@@H](CC(=O)O)C(=O)N[C@@H](Cc1ccccc1)C(=O)N[C@H](C(=O)N[C@@H](CCC(=O)O)C(=O)N[C@@H](Cc1c[nH]c2ccccc12)C(=O)N[C@@H](CC(C)C)C(=O)N[C@@H](CC(C)C)C(=O)N[C@@H](C)C(=O)N[C@@H](CCC(N)=O)C(=O)N[C@@H](CCCCN)C(=O)N1CCC[C@H]1C(=O)N[C@@H](CO)C(=O)N[C@@H](CO)C(=O)NCC(=O)N[C@@H](C)C(=O)N1CCC[C@H]1C(=O)N1CCC[C@H]1C(=O)N1CCC[C@H]1C(=O)N[C@@H](CO)C(=O)N[C@@H](CCCCNC(=O)CCCCCCCCCCCCCCC(=O)O)C(=O)O)C(C)C)[C@@H](C)CC [AT744] (H-EGTFISDYSIAMDKIHQQDFVEWLLAQKPSSGAPPPSK(C16 diacid)-OH; N-terminus assumed)
Avr lag time (h) [1, 3]: fnd (Fnd = fibrils not detected within experiment time (96 hours) with agitation.) | Visual appearance ([2]; 1 mg/ml, TFA, Phosphate (7.4)): Clear

CC[C@H](C)[C@H](NC(=O)[C@H](CO)NC(=O)[C@H](Cc1ccc(O)cc1)NC(=O)[C@H](CC(=O)O)NC(=O)[C@H](CO)NC(=O)[C@@H](NC(=O)[C@H](Cc1ccccc1)NC(=O)[C@@H](NC(=O)CNC(=O)[C@@H](N)CCC(=O)O)[C@@H](C)O)[C@@H](C)CC)C(=O)N[C@@H](C)C(=O)N[C@@H](CCSC)C(=O)N[C@@H](CC(=O)O)C(=O)N[C@@H](CCCCN)C(=O)N[C@H](C(=O)N[C@@H](CCCCNC(=O)CCCCCCCCCCCCCCC(=O)O)C(=O)N[C@@H](CCC(N)=O)C(=O)N[C@@H](CCC(N)=O)C(=O)N[C@@H](CC(=O)O)C(=O)N[C@@H](Cc1ccccc1)C(=O)N[C@H](C(=O)N[C@@H](CC(N)=O)C(=O)N[C@@H](Cc1c[nH]c2ccccc12)C(=O)N[C@@H](CC(C)C)C(=O)N[C@@H](CC(C)C)C(=O)N[C@@H](C)C(=O)N[C@@H](CCC(N)=O)C(=O)N[C@@H](CCCCN)C(=O)N1CCC[C@H]1C(=O)N[C@@H](CO)C(=O)N[C@@H](CO)C(=O)NCC(=O)N[C@@H](C)C(=O)N1CCC[C@H]1C(=O)N1CCC[C@H]1C(=O)N1CCC[C@H]1C(=O)N[C@@H](CO)C(=O)O)C(C)C)[C@@H](C)CC [AT364, GIP(3-30) [H18K] C16diacid+Cex(31-39), reference compound] (H-EGTFISDYSIAMDKIK(C16 diacid)QQDFVNWLLAQKPSSGAPPPS-OH; N-terminus assumed)
Avr lag time [1, 3]: <18 h | Avr lag time ([1]; 5 mg/ml, Na, MilliQ, 25° C., agitation): 20 to 50 h | Avr lag time ([1]; 5 mg/ml, TFA, MilliQ (8), 25° C., agitation): <18 h | Avr lag time ([1]; 5 mg/ml, TFA, Phosphate, 25° C., agitation): <18 h | Fibril formation (FIG. 1) ([1]; in phosphate buffer, about 94 h, orbital rotation): forms fibrils | Visual appearance ([2]; 1 mg/ml, CI, Phosphate (7.4)): Clear | Visual appearance ([2]; 1 mg/ml, Na, MilliQ): Clear | Visual appearance ([2]; 1 mg/ml, TFA, Phosphate (7.4)): Clear | Visual appearance ([2]; 5 mg/ml, Na, MilliQ): Clear | Visual appearance ([2]; 5 mg/ml, TFA, MilliQ (8)): Clear | Visual appearance ([2]; 5 mg/ml, TFA, Phosphate): Clear | Visual appearance ([2]; 7.5 mg/ml, Na, MilliQ (8)): Clear | Visual appearance ([2]; 15 mg/ml, Na, MilliQ (8)): Clear

B1: AT719 (peptide)
peptide: EGTFISDYSIAMDKIK(C16 diacid)QQDFVNWLLAQK-OH
modifications: N-terminus assumed
SMILES: CC[C@H](C)[C@H](NC(=O)[C@H](CO)NC(=O)[C@H](Cc1ccc(O)cc1)NC(=O)[C@H](CC(=O)O)NC(=O)[C@H](CO)NC(=O)[C@@H](NC(=O)[C@H](Cc1ccccc1)NC(=O)[C@@H](NC(=O)CNC(=O)[C@@H](N)CCC(=O)O)[C@@H](C)O)[C@@H](C)CC)C(=O)N[C@@H](C)C(=O)N[C@@H](CCSC)C(=O)N[C@@H](CC(=O)O)C(=O)N[C@@H](CCCCN)C(=O)N[C@H](C(=O)N[C@@H](CCCCNC(=O)CCCCCCCCCCCCCCC(=O)O)C(=O)N[C@@H](CCC(N)=O)C(=O)N[C@@H](CCC(N)=O)C(=O)N[C@@H](CC(=O)O)C(=O)N[C@@H](Cc1ccccc1)C(=O)N[C@H](C(=O)N[C@@H](CC(N)=O)C(=O)N[C@@H](Cc1c[nH]c2ccccc12)C(=O)N[C@@H](CC(C)C)C(=O)N[C@@H](CC(C)C)C(=O)N[C@@H](C)C(=O)N[C@@H](CCC(N)=O)C(=O)N[C@@H](CCCCN)C(=O)O)C(C)C)[C@@H](C)CC
nM (Kb, Gaddum assay, cAMP) (human GIP receptor): 7.6 nM | pKb (Gaddum assay, cAMP) (human GIP receptor): 8.1

B2: AT720 (peptide)
peptide: EGTFISEYSI[Aib]LEKIK([Aib-C16 diacid])QQEFVEWLLAQKPSSGAPPPS-OH
modifications: N-terminus assumed
SMILES: CC[C@H](C)[C@H](NC(=O)[C@H](CCCCN)NC(=O)[C@H](CCC(=O)O)NC(=O)[C@H](CC(C)C)NC(=O)C(C)(C)NC(=O)[C@@H](NC(=O)[C@H](CO)NC(=O)[C@H](Cc1ccc(O)cc1)NC(=O)[C@H](CCC(=O)O)NC(=O)[C@H](CO)NC(=O)[C@@H](NC(=O)[C@H](Cc1ccccc1)NC(=O)[C@@H](NC(=O)CNC(=O)[C@@H](N)CCC(=O)O)[C@@H](C)O)[C@@H](C)CC)[C@@H](C)CC)C(=O)N[C@@H](CCCCNC(=O)C(C)(C)NC(=O)CCCCCCCCCCCCCCC(=O)O)C(=O)N[C@@H](CCC(N)=O)C(=O)N[C@@H](CCC(N)=O)C(=O)N[C@@H](CCC(=O)O)C(=O)N[C@@H](Cc1ccccc1)C(=O)N[C@H](C(=O)N[C@@H](CCC(=O)O)C(=O)N[C@@H](Cc1c[nH]c2ccccc12)C(=O)N[C@@H](CC(C)C)C(=O)N[C@@H](CC(C)C)C(=O)N[C@@H](C)C(=O)N[C@@H](CCC(N)=O)C(=O)N[C@@H](CCCCN)C(=O)N1CCC[C@H]1C(=O)N[C@@H](CO)C(=O)N[C@@H](CO)C(=O)NCC(=O)N[C@@H](C)C(=O)N1CCC[C@H]1C(=O)N1CCC[C@H]1C(=O)N1CCC[C@H]1C(=O)N[C@@H](CO)C(=O)O)C(C)C
nM (Kb, Gaddum assay, cAMP) (human GIP receptor): 0.29 nM | pKb (Gaddum assay, cAMP) (human GIP receptor): 9.5

B3: AT721 (peptide)
peptide: EGTFISEYSI[Aib]LEKIK([γGlu-C16 diacid])QQEFVEWLLAQKPSSGAPPPS-OH
modifications: N-terminus assumed
SMILES: CC[C@H](C)[C@H](NC(=O)[C@H](CCCCN)NC(=O)[C@H](CCC(=O)O)NC(=O)[C@H](CC(C)C)NC(=O)C(C)(C)NC(=O)[C@@H](NC(=O)[C@H](CO)NC(=O)[C@H](Cc1ccc(O)cc1)NC(=O)[C@H](CCC(=O)O)NC(=O)[C@H](CO)NC(=O)[C@@H](NC(=O)[C@H](Cc1ccccc1)NC(=O)[C@@H](NC(=O)CNC(=O)[C@@H](N)CCC(=O)O)[C@@H](C)O)[C@@H](C)CC)[C@@H](C)CC)C(=O)N[C@@H](CCCCNC(=O)CC[C@H](NC(=O)CCCCCCCCCCCCCCC(=O)O)C(=O)O)C(=O)N[C@@H](CCC(N)=O)C(=O)N[C@@H](CCC(N)=O)C(=O)N[C@@H](CCC(=O)O)C(=O)N[C@@H](Cc1ccccc1)C(=O)N[C@H](C(=O)N[C@@H](CCC(=O)O)C(=O)N[C@@H](Cc1c[nH]c2ccccc12)C(=O)N[C@@H](CC(C)C)C(=O)N[C@@H](CC(C)C)C(=O)N[C@@H](C)C(=O)N[C@@H](CCC(N)=O)C(=O)N[C@@H](CCCCN)C(=O)N1CCC[C@H]1C(=O)N[C@@H](CO)C(=O)N[C@@H](CO)C(=O)NCC(=O)N[C@@H](C)C(=O)N1CCC[C@H]1C(=O)N1CCC[C@H]1C(=O)N1CCC[C@H]1C(=O)N[C@@H](CO)C(=O)O)C(C)C
nM (Kb, Gaddum assay, cAMP) (human GIP receptor): 0.31 nM | pKb (Gaddum assay, cAMP) (human GIP receptor): 9.5
